# Assay results reported in patent US10111831B2, “Chewable vehicle for mouth absorption” (TECHNOLOGIES KHLOROS INC., priority 2011, dated 2018).
# Tests used:
# [1] = Liberation of riboflavin from functional gel, passive vs artificial mastication; type: physicochemical; settings: Khlôros functional gel, 0.9% riboflavin, 10 ml H2O/gel, after 60 seconds, detection at 445 nm
# Procedure: • Material: • Khlôros functional gel (see examples I and II); • 0.9% Riboflavin; • Reactional media: 10 ml of H2O/gel; • Passive liberation of active ingredient (Riboflavin): no treatment on the gel; • Artificial mastication (active liberation): mimic the action of mastication →compression and soft shearing;
# Detection of the liberation of riboflavin and conversion in mM by the spectroscopic evaluation at 445 nm.
# [2] = Release of yohimbine from chewing gum masticated in water or artificial saliva; type: physicochemical; settings: gum with Corynanthe yohimbe bark extract (8% yohimbine), artificially masticated 120 seconds in 10 ml, chromatography
# Procedure: • Chewing gums are prepared following example xx, containing a bark extract of Corynanthe yohimbe (containing 8% of yohimbine); • Gums are artificially masticated for 120 seconds in 10 ml of water or artificial saliva; • The quantity of released yohimbine is analysed by chromatography.
Compound,liberation of riboflavin after artificial mastication compared to passive liberation [1] [times],"quantity of yohimbine released, masticated in saliva versus water [2]"
"Cc1cc2nc3c(=O)[nH]c(=O)nc-3n(C[C@H](O)[C@H](O)[C@H](O)CO)c2cc1C [riboflavin, Riboflavin]",23,
COC(=O)[C@@H]1[C@H]2C[C@H]3c4[nH]c5ccccc5c4CCN3C[C@@H]2CC[C@@H]1O [yohimbine],,more than 5 time
